# Patent publication US8304422B2, “Compositions and methods for inhibition of the JAK pathway” (Rigel Pharmaceuticals, Inc., priority 2007, dated 2012)
# Test system: BaF3 V617F cells; UKE-1
# Assay: Proliferation Assay (Cell Titer-Glo; Example 7)
# Format: cell-based
# Details: proliferation 72 hours, inhibit JAK2 activity, cell line (BaF3 V617F or UKE-1) not stated
# Procedure: BaF3 V617F cells are maintained and plated in RPMI with 10% FBS. Plating density for these cells is 1×10^5 cells/mL.
# UKE-1 are maintained and plated in Iscove's DMEM containing 10% FBS, 10% equine serum, 1% penicillin/streptomycin and 1 uM hydrocortisone. Plating density for these cells is 0.4×10^6 cells/mL
# The cells were resuspended in a corresponding medium at a required cell density (see above). 100μ of cell suspension was added to each well of a flat bottom 96 well white plate. The compound was serially diluted in DMSO from 5 mM in 3-fold dilutions, and then diluted 1:250 in the RPMI 1640 medium containing 5% FBS and pen/strep. 100 μL of resulting 2× compound solution was added per well in duplicate and the cells were allowed to proliferate for 72 hours at 37° C.
# Proliferation was measured using Cell Titer-Glo. The substrate was thawed and allowed to come to room temperature. After removal of top 100 μL of medium from each well, 100 μL of the premixed Cell Titer-Glo reagent was added to each well. The plates were mixed on an orbital shaker for three minutes to induce lysis and incubated at ambient temperature for an additional five minutes to allow the signal to equilibrate. The Luminescence was read on the Wallac Plate Reader.
# The results of the ability of the compounds of the invention to inhibit JAK2 activity, when tested in the above assay, are shown in the following Table XI wherein the level of activity (i.e., the IC50) for each compound is indicated in Table XI. The compound numbers in Table XI refers to the compounds disclosed herein as being prepared by the methods disclosed herein: […]
row,Molecule,IC50
1,"COc1c(C)cc(Nc2ncc(Cl)c(Nc3ccc(CNS(N)(=O)=O)cc3)n2)cc1C [II-146, N4-[4-(Aminosulfonylamino)methylphenyl]-5-chloro-N2-(3,5-dimethyl-4-methoxyphenyl)-2,4-pyrimidinediamine]",225 nM
2,COc1cc(C)c(Nc2ncc(C)c(Nc3ccc(CCNS(=O)(=O)C4CC4)cc3)n2)c(C)c1 [II-62],438 nM
3,"(1R)—N2-(3,5-Dichloro-4-methoxyphenyl))-5-methyl-N4-[1-(methylsulfonyl)aminoindan-6-yl]-2,4-pyrimidinediamine [V-13]",19300 nM
4,"O=S(=O)(NCCc1ccc(Nc2nc(Nc3ccc(-c4ccccc4)cc3)ncc2Cl)cc1)C1CC1 [II-58, 5-Chloro-N4[4-(N-cyclopropylsulfonylamino)ethylphenyl]-N2-[4-biphenyl]-2,4-pyrimidinediamine]",16200 nM
5,"CN1CCN(c2ccncc2Nc2ncc(Cl)c(Nc3ccc4c(c3)S(=O)(=O)NCC4)n2)CC1 [VII-3, 5-Chloro-N4-[3,4-dihydro-1,1-dioxide-2H-1,2-benzothiazin-7-yl]-N2-[4-(N-methylpiperizin-4-yl)pyridine-3-yl]-2,4-pyrimidinediamine]",1170 nM
6,"CCNS(=O)(=O)NCc1ccc(Nc2nc(Nc3cc(C)c(OC)c(C)c3)ncc2Cl)cc1 [II-108, 5-chloro-N2-(3,5-Dimethyl-4-methoxyphenyl)-N4-[(4-(ethylamino)sulfonylamino)methylphenyl]-2,4-pyrimidinediamine]",85 nM
7,"5-Chloro-N4-[4-(N-cyclopropyl-N-acetylsulfonylamino)methylphenyl]-N2-[3,4-dimethyl-5-methoxyphenyl]-2,4-pyrimidinediamine [II-217]",233 nM
8,"N4-[4-(N-Cyclopropylsulfonylamino)methylphenyl]-N2-[3,4-dimethyl-4-(2-(4-morpholinyl)ethoxy)phenyl]-5-methyl-2,4-pyrimidinediamine [II-159]",47.6 nM
9,"CCNS(=O)(=O)NCc1ccc(Nc2nc(Nc3cc(C)c(OC)c(Cl)c3)ncc2Cl)cc1 [II-110, 5-Chloro-N2-(3-chloro-4-methoxy-5-methylphenyl)-N4-[(4-(ethylamino)sulfonylamino)methylphenyl]-2,4-pyrimidinediamine]",601 nM
10,"CCNS(=O)(=O)NCc1cccc(Nc2nc(Nc3cc(C)c(OC)c(C)c3)ncc2Cl)c1 [II-129, 5-Chloro-N2-(3,5-dimethyl-4-methoxyphenyl)-N4-[(3-(ethylamino)sulfonylamino)methylphenyl]-2,4-pyrimidinediamine]",127 nM
11,"Cc1cc(Nc2ncc(Cl)c(Nc3ccc(CNS(=O)(=O)C4CC4)cc3)n2)cc(C)c1OC(C)C [II-220, 5-Chloro-N4-[4-(N-cyclopropylsulfonylamino)methylphenyl]-N2-[3,5-dimethyl-4-(2-propoxy)phenyl]-2,4-pyrimidinediamine]",121 nM
12,"CCN1CCN(c2ccc(Nc3ncc(C)c(Nc4ccc(CNS(=O)(=O)C5CC5)cc4)n3)cc2)CC1 [II-204, 5-Methyl-N4-[4-(N-cyclopropylsulfonylamino)methylphenyl]-N2-[4-(N-ethylpiperizin-4-yl)phenyl]-2,4-pyrimidinediamine]",175 nM
13,"Cc1cnc(Nc2cncc(C)c2N2CCN(C)CC2)nc1Nc1ccc2c(c1)S(=O)(=O)NCC2 [VII-7, 5-Methyl-N4-[3,4-dihydro-1,1-dioxide-2H-1,2-benzothiazin-7-yl]-N2-[5-methyl-4-(N-methylpiperizin-4-yl)pyridine-3-yl]-2,4-pyrimidinediamine]",5390 nM
14,"CN1CCN(c2ccc(Nc3ncc(Cl)c(Nc4ccc(CNS(=O)(=O)NC5CC5)cc4)n3)cc2)CC1 [II-167, 5-Chloro-N4-[4-((N-cyclopropylamino)sulfonylamino)methylphenyl]-N2-[4-(4-methyl-1-piperazinyl)phenyl]-2,4-pyrimidinediamine]",205 nM

# More lines, in order of falling IC50, values ahead:
row,IC50,Molecule
1,1630 nM,"CCNS(=O)(=O)NCc1cccc(Nc2nc(Nc3ccc(N4CCN(C)CC4)c(C)c3)ncc2Cl)c1 [II-132, 5-Chloro-N4-[(3-(ethylamino)sulfonylamino)methylphenyl]-N2-[3-methyl-4-(4-methyl-1-piperazinyl)phenyl]-2,4-pyrimidinediamine]"
2,1440 nM,"Cc1cc(Nc2ncc(C)c(Nc3ccc(CNS(=O)(=O)C4CC4)cc3)n2)ccc1N1CCN(C)CC1 [II-202, 5-Methyl-N4-[4-(N-cyclopropylsulfonylamino)methylphenyl]-N2-[3-methyl-4-(N-methylpiperizin-4-yl)phenyl]-2,4-pyrimidinediamine]"
3,1400 nM,CCCN1CCN(c2ccc(Nc3ncc(C)c(Nc4ccc(CCNS(=O)(=O)C5CC5)cc4)n3)c(C(F)(F)F)c2)CC1 [II-71]
4,1270 nM,"CCS(=O)(=O)N1CCc2c(cccc2Nc2nc(Nc3ccc(N4CCN(C)CC4)nc3)ncc2Cl)C1 [VI-3, 5-Chloro-N2-[6-(4-methyl-1-piperazinyl)-3-pyridinyl]-N4-[1,2,3,4-tetrahydro-2-(ethylsulfonyl)-5-isoquinolinyl]-2,4-pyrimidinediamine]"
5,798 nM,"CCS(=O)(=O)N1CCc2c(cccc2Nc2nc(Nc3cc(OC)c(OC)c(OC)c3)ncc2Cl)C1 [VI-5, 5-Chloro-N4-[1,2,3,4-tetrahydro-2-(ethylsulfonyl)-5-isoquinolinyl]-N2-(3,4,5-trimethoxyphenyl)-2,4-pyrimidinediamine]"
6,701 nM,"CN1CCC(c2ccc(Nc3ncc(Cl)c(Nc4cccc(CNS(=O)(=O)C5CC5)c4)n3)cc2)CC1 [II-190, 5-Chloro-N4-[3-(N-cyclopropylsulfonylaminomethyl)phenyl]-N2-[4-(N-methylpiperidin-4-yl)phenyl]-2,4-pyrimidinediamine]"
7,597 nM,"COc1cc(Nc2ncc(F)c(Nc3ccc(CNS(=O)(=O)C4CC4)cc3)n2)cc(Cl)c1OC [II-196, 5-Fluoro-N4-[4-(N-cyclopropylsulfonylamino)methylphenyl]-N2-[3,4-dimethoxy-5-chlorophenyl]-2,4-pyrimidinediamine]"
8,473 nM,"CCS(=O)(=O)N1CCc2c(cccc2Nc2nc(Nc3ccc(N4CCN(C)CC4)cc3)ncc2Cl)C1 [VI-1, 5-Chloro-N2-[4-(4-methyl-1-piperazinyl)phenyl]-N4-[1,2,3,4-tetrahydro-2-(ethylsulfonyl)-5-isoquinolinyl]-2,4-pyrimidinediamine]"
9,466 nM,"5-Chloro-N4-[3-(N-cyclopropylsulfonylamino)methylphenyl]-N2-[4-(N-methylpiperizin-4-yl)phenyl]-2,4-pyrimidinediamine [II-191]"
10,428 nM,"CCCOc1c(C)cc(Nc2ncc(Cl)c(Nc3ccc(CNS(=O)(=O)NC4CC4)cc3C)n2)cc1C [II-178, 5-Chloro-N2-(3,5-dimethyl-4-propoxyphenyl)-N4-[2-methyl-4-((N-cyclopropylamino)sulfonylamino)methylphenyl]-2,4-pyrimidinediamine]"
11,384 nM,"5-Chloro-N4-[4-(N-cyclopropylsulfonylamino)methylphenyl]-N2-[4-[N-(methansulfonyl)piperizin-4-ylphenyl]-2,4-pyrimidinediamine [II-207]"
12,348 nM,"CN1CCN(c2ccc(Nc3ncc(Cl)c(Nc4ccc(CNS(=O)(=O)NC5CC5)cc4)n3)cn2)CC1 [II-169, 5-Chloro-N4-[4-((N-cyclopropylamino)sulfonylamino)methylphenyl]-N2-[6-(4-methyl-1-piperazinyl)-3-pyridinyl]-2,4-pyrimidinediamine]"
13,251 nM,"5-Chloro-N4-[4-[N-(Cyclopropylsulfonyl)-N′-((3-ethoxycarbonyl)propion-1-yl)amino]methylphenyl]-N2-(3,5-dimethyl-4-methoxyphenyl)-2,4-pyrimidinediamine [II-140]"
14,247 nM,"COc1cc(Nc2ncc(C)c(Nc3ccc(CNS(=O)(=O)NC4CC4)cc3)n2)cc(C)c1OC [II-166, N4-[4-((N-Cyclopropylamino)sulfonylamino)methylphenyl]-N2-(3,4-dimethoxy-5-methylphenyl)-5-methyl-2,4-pyrimidinediamine]"
15,215 nM,"COc1cc(Nc2ncc(Cl)c(Nc3ccc(CNS(=O)(=O)NC4CC4)cc3C)n2)cc(C)c1OC [II-179, 5-Chloro-N2-(3,4-dimethoxy-5-methylphenyl)-N4-[2-methyl-4-((N-cyclopropylamino)sulfonylamino)methylphenyl]-2,4-pyrimidinediamine]"
16,190 nM,"CCOc1c(C)cc(Nc2ncc(Cl)c(Nc3ccc(CNS(=O)(=O)NC4CC4)cc3C)n2)cc1C [II-176, 5-Chloro-N2-(3,5-dimethyl-4-ethoxyphenyl)-N4-[2-methyl-4-((N-cyclopropylamino)sulfonylamino)methylphenyl]-2,4-pyrimidinediamine]"
17,149 nM,"Cc1cc(CNS(=O)(=O)C2CC2)ccc1Nc1nc(NC2=CC(C)C(C)(OCCN3CCOCC3)C=C2)ncc1C (centres unmarked) [II-161, N2-[3,4-Dimethyl-4-(2-(4-morpholinyl)ethoxy)phenyl]-5-methyl-N4-[2-methyl-4-(N-cyclopropylsulfonylamino)methylphenyl]-2,4-pyrimidinediamine]"
18,83.6 nM,"5-Chloro-N2-(3,5-dimethyl-5-methoxyphenyl)-N4-[(4-(dimethylamino)sulfonylamino)methylphenyl]-2,4-pyrimidinediamine [II-90]"
